Measured values published in US9198433B2, “Substituted benzene fungicides” (E I DU PONT DE NEMOURS AND COMPANY, priority 2007, dated 2015).
Read-outs that look alike come from different tables or passages of the source. Marks after values point to notes of the source that are not given here.

Columns and labels:
Assay type in all cases: in vivo
Botrytis cinerea = assay: Test F: tomato Botrytis, preventive spray on tomato seedlings, disease rating
Outline: (§1)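 Disease ratings follow a preventive run-off spray of tomato seedlings. Compounds were first dissolved in acetone (3% of volume), then suspended in 50/50 acetone/water containing 250 ppm Trem 014. Test level 200 ppm (equivalent to 500 g/ha) except where marked * for 40 ppm or ** for 50 ppm.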

Alternaria solani = assay: Test H: tomato early blight, preventive spray on tomato seedlings, disease rating
Outline: as §1

Rhizoctonia oryzae = assay: Test I: turf brown patch, preventive spray on creeping bent grass seedlings, disease rating
Description: The test compounds were first dissolved in acetone in an amount equal to 3% of the final volume and then suspended at the desired concentration (in ppm) in acetone and purified water (50/50 mix) containing 250 ppm of the surfactant Trem® 014 (polyhydric alcohol esters). The resulting test suspensions were then used in Tests A-L. Spraying a 200 ppm test suspension to the point of run-off on the test plants was the equivalent of an application rate of 500 g/ha. The test suspension was sprayed to the point of run-off on creeping bent grass seedlings. […] A dash (-) indicates no test results. All results are for 200 ppm except where followed by an “*”, which indicates 40 ppm or “**”, which indicates 50 ppm.

Plasmopara viticola = assay: Test K: grape downy mildew, spray on grape seedlings after inoculation, disease rating
Description: The test compounds were first dissolved in acetone in an amount equal to 3% of the final volume and then suspended at the desired concentration (in ppm) in acetone and purified water (50/50 mix) containing 250 ppm of the surfactant Trem® 014 (polyhydric alcohol esters). The resulting test suspensions were then used in Tests A-L. Spraying a 200 ppm test suspension to the point of run-off on the test plants was the equivalent of an application rate of 500 g/ha. Grape seedlings were inoculated with a spore suspension of Plasmopara viticola (the causal agent of grape downy mildew) and incubated in a saturated atmosphere at 20° C. for 24 h. After a short drying period, the test suspension was sprayed to the point of run-off on the grape seedlings and then moved to a growth chamber at 20° C. for 6 days, after which the test units were placed back into a saturated atmosphere at 20° C. for 24 h. Upon removal, disease ratings were made. […] A dash (-) indicates no test results. All results are for 200 ppm except where followed by an “*”, which indicates 40 ppm or “**”, which indicates 50 ppm.

Pythium aphanidermatum = assay: Test L: bluegrass pythium blight, preventive spray on bluegrass seedlings, disease rating
Description: The test compounds were first dissolved in acetone in an amount equal to 3% of the final volume and then suspended at the desired concentration (in ppm) in acetone and purified water (50/50 mix) containing 250 ppm of the surfactant Trem® 014 (polyhydric alcohol esters). The resulting test suspensions were then used in Tests A-L. Spraying a 200 ppm test suspension to the point of run-off on the test plants was the equivalent of an application rate of 500 g/ha. The test suspension was sprayed to the point of run-off on bluegrass seedlings. […] A dash (-) indicates no test results. All results are for 200 ppm except where followed by an “*”, which indicates 40 ppm or “**”, which indicates 50 ppm.

[1] = system: Puccinia recondita f. sp. tritici; assay: Test B: wheat leaf rust, preventive spray on wheat seedlings, disease rating
Outline: (§2)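 Preventive foliar spray to run-off on wheat seedlings, followed by disease rating. Test rate 200 ppm (equal to 500 g/ha), with some entries at 40 ppm or 50 ppm. Suspensions made in acetone/purified water 50/50 containing 250 ppm Trem 014.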

Phytophthora infestans = settings: tomato late blight
Fusarium graminearum = settings: wheat head scab
Septoria nodorum = assay: Test C: wheat glume blotch, preventive spray on wheat seedlings, disease rating
Outline: as §2

[2] = system: Erysiphe graminis f. sp. tritici; assay: Test A: wheat powdery mildew, preventive spray on wheat seedlings, disease rating
Outline: as §2

Septoria tritici = assay: Test D: wheat leaf blotch, preventive spray on wheat seedlings, disease rating
Outline: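 Preventive test: one day after run-off spraying (200 ppm, equal to 500 g/ha, unless marked 40 or 50 ppm; acetone/water plus 250 ppm Trem 014), seedlings received S. tritici spore inoculum. Disease scored after 48 h at 24 °C in saturated air and 19 further days at 20 °C.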

[3] = 200 ppm, 100 = 100% disease control, 0 = no control relative to controls
[4] = 40 ppm (*), 100 = 100% disease control, 0 = no control relative to controls

Structure (SMILES)	Percentage Disease Control, Test F (Botrytis cinerea; 200 ppm) [%]	Percentage Disease Control, Test H (Alternaria solani; 200 ppm) [%]	Percentage Disease Control, Test I (Rhizoctonia oryzae; 200 ppm) [%]	Percentage Disease Control, Test K (Plasmopara viticola; 200 ppm) [%]	Percentage Disease Control, Test L (Pythium aphanidermatum; 200 ppm) [%]	Percentage Disease Control, Test B ([1]; 40 ppm (*))	Percentage Disease Control, Test J (Phytophthora infestans; 200 ppm) [%]	Percentage Disease Control, Test E (Fusarium graminearum; 200 ppm) [%]	Percentage Disease Control, Test C (Septoria nodorum; 40 ppm (*))	Percentage Disease Control, Test A ([2]; 40 ppm (*))	Percentage Disease Control, Test D (Septoria tritici; 40 ppm (*))	Percentage Disease Control, Test B ([1]; 200 ppm) [%]	Percentage Disease Control, Test C (Septoria nodorum; 200 ppm) [%]	Percentage Disease Control, Test A ([2]; 200 ppm) [%]	also measured
COC(=O)NOc1cc(-c2cccc(OC(F)(F)F)c2)ccc1Cl [Cmpd 18]	0	70	0	81	98	99* %	89	100	99* %	100* %	98* %				
COC(=O)NCc1cc(-c2ccn(Cc3cccc(C)n3)n2)ccc1Cl [Cmpd 20]	0	0	0	0	0		0	72				100	96	99	
COC(=O)NCc1cc(-c2cc[nH]n2)ccc1Cl [Cmpd 21]	0	0	0	0	0		0	0				79	0	0	
COC(=O)NCc1cc(-c2ccn(CCC(C)C)n2)ccc1Cl [Cmpd 22]	0	0	0	99		95* %	50	99		99* %	85* %		99		Percentage Disease Control, Test L (Pythium aphanidermatum; 40 ppm (*)): 94* %
COC(=O)NCc1cc(-c2ccn(CCC[Si](C)(C)C)n2)ccc1Cl [Cmpd 23]	0	0	0			100* %	91	99	100* %	99* %	98* %				Percentage Disease Control, Test K (Plasmopara viticola; 40 ppm (*)): 99* %; Percentage Disease Control, Test L (Pythium aphanidermatum; 40 ppm (*)): 93* %
C#CCCCn1ccc(-c2ccc(Cl)c(CNC(=O)OC)c2)n1 [Cmpd 24]	0	0	0	83		99* %			99* %	96* %					Percentage Disease Control, Test J (Phytophthora infestans; 40 ppm (*)): 0* %; Percentage Disease Control, Test E (Fusarium graminearum; 40 ppm (*)): 96* %
COC(=O)NCc1cc(-c2ccn(C(C)[Si](C)(C)C)n2)ccc1Cl (centres unmarked) [Cmpd 29]															Percentage Disease Control, Test F (Botrytis cinerea; 50 ppm (**)): 0** %; Percentage Disease Control, Test H (Alternaria solani; 50 ppm (**)): 67** %; Percentage Disease Control, Test I (Rhizoctonia oryzae; 50 ppm (**)): 0** %; Percentage Disease Control, Test K (Plasmopara viticola; 50 ppm (**)): 27** %; Percentage Disease Control, Test L (Pythium aphanidermatum; 50 ppm (**)): 0** %; Percentage Disease Control, Test B ([1]; 50 ppm (**)): 98** %; Percentage Disease Control, Test J (Phytophthora infestans; 50 ppm (**)): 0** %; Percentage Disease Control, Test C (Septoria nodorum; 50 ppm (**)): 82** %; Percentage Disease Control, Test A ([2]; 50 ppm (**)): 78** %; Percentage Disease Control, Test D (Septoria tritici; 50 ppm (**)): 96** %
COC(=O)NCc1cc(-c2ccn(CCC=C(C)C)n2)ccc1Cl [Cmpd 30]	0	0	0	74	0		0					98	73	83	Percentage Disease Control, Test D (Septoria tritici; 200 ppm): 90%
COC(=O)NCc1cc(-c2ccn(CCC#N)n2)ccc1Cl [Cmpd 31]						0* %			0* %	0* %	69* %				Percentage Disease Control, Test F (Botrytis cinerea; 40 ppm (*)): 0* %; Percentage Disease Control, Test H (Alternaria solani; 40 ppm (*)): 0* %; Percentage Disease Control, Test I (Rhizoctonia oryzae; 40 ppm (*)): 0* %; Percentage Disease Control, Test K (Plasmopara viticola; 40 ppm (*)): 20* %; Percentage Disease Control, Test L (Pythium aphanidermatum; 40 ppm (*)): 0* %; Percentage Disease Control, Test J (Phytophthora infestans; 40 ppm (*)): 0* %
COC(=O)NCc1cc(-c2ccn(CCCC#N)n2)ccc1Cl [Cmpd 32]	0	0	0	34	0		0					80	0	41	Percentage Disease Control, Test D (Septoria tritici; 200 ppm): 88%
COC(=O)NCc1cc(-c2ccn(-c3cccc(C(F)(F)F)c3)n2)ccc1Cl [Cmpd 50]	0	55				99* %			100* %	100* %	100* %				Percentage Disease Control, Test E (Fusarium graminearum; 40 ppm (*)): 97* %
COC(=O)NCc1cc(-c2cnn(CCC[Si](C)(C)C)c2)ccc1Cl [Cmpd 126]															Percentage Disease Control, Test F (Botrytis cinerea; [3]): 0%; Percentage Disease Control, Test H (Alternaria solani; [3]): 0%; Percentage Disease Control, Test B [1, 4]: 98* %; Percentage Disease Control, Test E (Fusarium graminearum; [3]): 0%; Percentage Disease Control, Test C (Septoria nodorum; [3]): 99%; Percentage Disease Control, Test A [2, 3]: 95%; Percentage Disease Control, Test D (Septoria tritici; [4]): 97* %
COC(=O)NCc1cc(C(C)=NOCC(C)[Si](C)(C)C)ccc1Cl (centres unmarked) [Compound 2, methyl N-[[2-chloro-5-[1-[[2-(trimethylsilyl)propoxy]imino]ethyl]phenyl]-methyl]carbamate]	0		0	70	0		0	100			91* %	100	99	100	
C=C(CON=C(C)c1ccc(Cl)c(CNC(=O)OC)c1)C[Si](C)(C)C [Compound 3]	0		0	26	0		0	87			16* %	100	99	98	
C=C[Si](C)(C)CON=C(C)c1ccc(Cl)c(CNC(=O)OC)c1 [Compound 4]	37		0	74	0		0	97			59* %	99	99	98	
